Assay results published in article PMC5045423, “X66, a novel N-terminal heat shock protein 90 inhibitor, exerts antitumor effects without induction of heat shock response” (Oncotarget, 2016).

Tests used:
HSP90α [1] = target: T1, HSP90α (Homo sapiens, UniProt P07900); assay: SPR (BIAcore […], immobilized full-length HSP90α); also competes with Biotin-X66 for the N-terminal domain in pull-down; format: binding; design: gene HSP90AA1; recombinant human full-length HSP90α
HSP90α [2] = target: T1, HSP90α; assay: streptavidin pull-down of purified full-length HSP90α and NTD, competed by excess soluble X66; format: binding; design: gene HSP90AA1; recombinant human full-length protein and its N-terminal fragment, but not the C-terminal fragment

| SMILES | Kd (HSP90α [1]) [µM] | streptavidin pull-down of purified full-length HSP90α and NTD, competed by exces (HSP90α [2]) |
| --- | --- | --- |
| Cc1cc(C)n(-c2nc(NN=Cc3c[nH]c4ccccc34)nc(Nc3ccc(Br)cc3)n2)n1 [X66, 4-(2-((1H-indol-3-yl)methylene)hydrazinyl)-N-(4-bromophenyl)-6-(3,5-dimethyl-1H -pyrazol-1-yl)-1,3,5-triazin-2-amine] | 5.3 |  |
| Cc1cc(C)n(-c2nc(NN=Cc3cn(C(=O)CCCC[C@@H]4SC[C@@H]5NC(=O)N[C@@H]54)c4ccccc34)nc(Nc3ccc(Br)cc3)n2)n1 [Biotin-X66] |  | Biotin-X66 was able to isolate the recombinant human full-length protein and its N-terminal fragment, but not the C-terminal fragment |
